The values below come from patent US6818212B2, “Antimicrobial composition containing a haloperoxidase, a hydrogen peroxide source, a halide source and an ammonium source” (Novozymes A/S, priority 1997, dated 2004).

Each structure is given as a SMILES string. Some results are limits rather than exact numbers.

What all share (type): cell-based
The subject of assay [1] is Staphylococcus epidermidis DSM 20 042. In words: Bactericidal activity of haloperoxidase with ammonium halides vs potassium/sodium halides as electron donors, Example 3. Conditions: for bactericidal activity (possible): ammonium halide salt as electron donor, summary of Table 1; for Log reduction in cell number: haloperoxidase 1 mg/l, 0.5 mM H2O2, pH 6.0, 15 min 40° C. The protocol: (§1) The bactericidal activity was determined by incubation in Malthus. The detection times measured by the Malthus instrument were converted to cfu/ml by a calibration curve.
(§2) Either direct or indirect Malthus measurements were used when enumerating total survival cells (Malthus Flexi M2060, Malthus Instrument Limited). By the direct measurements, the cell metabolism was determined by conductance measurements in the growth substrate. By the indirect measurements, 3 ml of growth medium was transferred to the outer chamber of the indirect Malthus cells, and 0.5 ml of sterile KOH (0.1 M) was transferred to the inner chamber. The cell suspensions were after enzyme treatment transferred to the outer chamber of the Malthus cell. As cells are growing in the outer chamber they produce CO2 which will dissolve in the KOH in the inner chamber and thereby change the conductance of the KOH. The amount of CO2 formed by the respiring cells surviving the enzyme treatment was used for estimating the number of viable cells. When the conductance change is measurable by the Malthus, a detection time (dt) will be recorded. The dt's were converted to colony counts by use of a calibration curve relating cfu/ml to dt (FIG. 1).
The antibacterial activity of a haloperoxidase (1 mg/l) was tested in MES-buffer (2-[N-morpholino] ethanesulfonic acid) (pH 6.0) against Staphylococcus epidermidis DSM 20 042 with ammonium iodide, ammonium chloride or ammonium bromide as electron donors, and hydrogen peroxide was added as electron acceptor giving the final concentration 0.5 mM. The cells (approximately 10^6 cfu/ml) were incubated with enzyme for 15 min at 40° C. The bactericidal activity was determined by incubation in Malthus (see Example 1).

The test system is the same in assay [2]. In words: Bactericidal activity of haloperoxidase with iodide or bromide, with or without NH4+, Example 2. Conditions: haloperoxidase 1 mg/l. The protocol: as §1, §2
The antibacterial activity of a haloperoxidase (1 mg/l) was tested in MES-buffer (2-[N-morpholino] ethanesulfonic acid) (pH 6.0) against Staphylococcus epidermidis DSM 20 042 with potassium iodide and potassium bromide as electron donor, and hydrogen peroxide (to a final concentration of 0.5 mM) was added as electron acceptor in the presence of NH4^+. The cells (approximately 10^6 cfu/ml) were incubated with enzyme for 15 min at 40° C. The bactericidal activity was determined by incubation in Malthus (see Example 1).

Assay [3] shares this test system. The assay is described as follows: Bactericidal activity of haloperoxidase (rCvP) system, Malthus detection, Example 1. To be noted: haloperoxidase 1 mg/l, 0.5 mM H2O2, pH 6. On the procedure:
(§3) The antibacterial activity of a haloperoxidase was tested in MES-buffer (2-[N-morpholino] ethanesulfonic acid)(pH 6.0) against Pseudomonas aeruginosa ATCC 10146 and Staphylococcus epidermidis DSM 20 042 with sodium chloride as electron donor, and hydrogen peroxide was added as electron acceptor in the presence of NH4+. The cells (approximately 10^6 cfu/ml) were incubated with the enzyme for 15 min at 40° C.
as §1, §2
(§4) Hydrogen peroxide was added to a final concentration of 0.5 mM.

Assay [4] relates to Pseudomonas aeruginosa ATCC 10146. Described as above. Conditions: haloperoxidase 1 mg/l, 0.5 mM H2O2, pH 6. On the procedure: as §3, §1, §2, §4
The subject of assay [5] is Staphylococcus epidermidis DSM 20 042. The assay is described as follows: Bactericidal activity of haloperoxidase with chloride and ethanolamine, HEPES pH 7.0, Example 4. Conditions: haloperoxidase 1 mg/L, chloride 80 mM, ethanolamine 2.5 mM, 0.5 mM H2O2, pH 7.0. On the procedure: as §1
as §2, with “The amount of CO2 formed by the respiring cells surviving the enzyme treatment was used for estimating the number of viable cells.” left out, “The dt's were converted to colony counts by use of a calibration curve relating cfu/ml to dt (FIG. 1).” left out
The antibacterial activity of Curvularia verruculosa haloperoxidase (1 mg/L) was tested in HEPES-buffer (Sigma H3375)(pH 7.0) against Staphylococcus epidermidis DSM 20 042 with chloride (80 mM) as electron donor combined with ethanolamine (2.5 mM), and hydrogen peroxide was added as electron acceptor giving the final concentration 0.5 mM. […] The bactericidal activity was determined by incubation in Malthus (see Example 1).

Where [6] appears, read: 0.5 mM H2O2, pH 6.0, no ammonium.

As for `Br.N` [BrNH4, ammonium bromide], the “bactericidal activity (possible)” value in assay [1] came to 100%. For the same compound, the “Log reduction in cell number” value amounted to 3.7 log cfu/ml in assay [1] (halide 4 mM) and 6.2 log cfu/ml in assay [1] (halide 8 mM).

For `Cl.N` [ClNH4, ammonium chloride], the “bactericidal activity (possible)” value in assay [1] is 100%. Moreover, the “Log reduction in cell number” value in assay [1] (halide 25 mM) and in assay [1] (halide 50 mM) was 6.2 log cfu/ml throughout.

For `I.N` [INH4, ammonium iodide], the “bactericidal activity (possible)” value in assay [1] is 100%. Besides, the “Log reduction in cell number” value in assay [1] (halide 0.21 mM) and in assay [1] (halide 0.5 mM) was 6.2 log cfu/ml throughout.

In the case of `[Br-].[K+]` [KBr, potassium bromide], the “Log reduction in cell number” value in assay [1] (halide 4 mM) is on record as 2.8 log cfu/ml; in assay [1] (halide 8 mM), 5.4 log cfu/ml. Further, the “bromide concentration needed for 100% bactericidal activity” value in assay [2] (setting [6]) is listed as above 10 mM.

Consider `[I-].[K+]` [KI, potassium iodide], for which the “Log reduction in cell number” value in assay [1] (halide 0.25 mM) stood at 5.1 log cfu/ml; in assay [1] (halide 0.5 mM) it was 6.1 log cfu/ml. Moreover, the “iodide concentration for 100% bactericidal activity” value in assay [2] (0.5 mM H2O2, pH 6.0, ammonium added (FIG. 3)) is on record as 0.05-0.1 mm. Further, the “iodide concentration for 100% antibacterial activity” value in assay [2] (setting [6]) is “about 0.2 mM”.

Consider `[Cl-].[Na+]` [NaCl, sodium chloride], for which the “Log reduction in cell number” value is listed as 0.5 log cfu/ml in assay [1] (halide 25 mM) and 0.8 log cfu/ml in assay [1] (halide 50 mM). Besides, the “NaCl concentration at which antibacterial activity was observed” value in assay [3] and in assay [4] was “above 20 mM” throughout. The “NaCl concentration at which plateau of antibacterial activity was reached” value in assay [3] and in assay [4] was “approximately 100 mM” each time.

Consider `NCCO` [ethanolamine], for which the kill in assay [5] came to 100%.
